Data as given in PubChem BioAssay (NCI).
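Step 1: Grow cells in 96-well plates. Step 2: Expose to compound for 48 hours at 5 concentrations. Step 3: Interpolate endpoints linearly; if unreached, use highest concentration. GI50 = concentration required for 50% inhibition of growth. TGI: total growth inhibition.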

What was measured:
Assay in all cases: NCI tumour cell line growth inhibition, 48 h
NCI-H522 lung = system: NCI-H522 lung
UACC-62 melanoma = system: UACC-62 melanoma
OVCAR-8 ovarian = system: OVCAR-8 ovarian
A498 renal = system: A498 renal
HCT-15 colon = system: HCT-15 colon
SF-295 CNS = system: SF-295 CNS
RPMI-8226 leukemia = system: RPMI-8226 leukemia
SK-MEL-28 melanoma = system: SK-MEL-28 melanoma
786-0 renal = system: 786-0 renal
SNB-75 CNS = system: SNB-75 CNS
SK-MEL-5 melanoma = system: SK-MEL-5 melanoma
OVCAR-3 ovarian = system: OVCAR-3 ovarian
SNB-19 CNS = system: SNB-19 CNS
RXF 393 renal = system: RXF 393 renal
HCC-2998 colon = system: HCC-2998 colon
NCI/ADR-RES ovarian = system: NCI/ADR-RES ovarian
MOLT-4 leukemia = system: MOLT-4 leukemia
SK-OV-3 ovarian = system: SK-OV-3 ovarian
COLO 205 colon = system: COLO 205 colon
UACC-257 melanoma = system: UACC-257 melanoma
MDA-MB-435 = system: MDA-MB-435
DU-145 prostate = system: DU-145 prostate
K-562 leukemia = system: K-562 leukemia
BT-549 breast = system: BT-549 breast
SW-620 colon = system: SW-620 colon
ACHN renal = system: ACHN renal
MCF7 breast = system: MCF7 breast
NCI-H460 lung = system: NCI-H460 lung
SF-268 CNS = system: SF-268 CNS
IGROV1 ovarian = system: IGROV1 ovarian
HL-60(TB) leukemia = system: HL-60(TB) leukemia
T-47D breast = system: T-47D breast
HCT-116 colon = system: HCT-116 colon
KM12 colon = system: KM12 colon
U251 CNS = system: U251 CNS
UO-31 renal = system: UO-31 renal
M14 melanoma = system: M14 melanoma
HOP-92 NSCLC = system: HOP-92 NSCLC
NCI-H226 lung = system: NCI-H226 lung
SR leukemia = system: SR leukemia
CCRF-CEM leukemia = system: CCRF-CEM leukemia
HOP-62 NSCLC = system: HOP-62 NSCLC
PC-3 prostate = system: PC-3 prostate
TK-10 renal = system: TK-10 renal
OVCAR-4 ovarian = system: OVCAR-4 ovarian
OVCAR-5 ovarian = system: OVCAR-5 ovarian
HT29 colon = system: HT29 colon
A549 NSCLC = system: A549 NSCLC
SF-539 CNS = system: SF-539 CNS
LOX IMVI melanoma = system: LOX IMVI melanoma
NCI-H23 lung = system: NCI-H23 lung
HS 578T breast = system: HS 578T breast
MALME-3M melanoma = system: MALME-3M melanoma
MDA-MB-231 breast = system: MDA-MB-231 breast
SK-MEL-2 melanoma = system: SK-MEL-2 melanoma
CAKI-1 renal = system: CAKI-1 renal
SN12C renal = system: SN12C renal

SMILES: O=c1c2sc3ccccc3c2nnn1-c1ccc(F)c(Cl)c1
- GI50 (NCI-H522 lung): 20.2 µM
- TGI (NCI-H522 lung): > 100 µM
- GI50 (UACC-62 melanoma): 11.7 µM
- TGI (UACC-62 melanoma): 38.8 µM
- GI50 (OVCAR-8 ovarian): 5.16 µM
- TGI (OVCAR-8 ovarian): > 100 µM
- GI50 (A498 renal): 5.82 µM
- TGI (A498 renal): 24.2 µM
- GI50 (HCT-15 colon): 20.3 µM
- TGI (HCT-15 colon): > 100 µM
- GI50 (SF-295 CNS): 2.56 µM
- TGI (SF-295 CNS): 8.59 µM
- GI50 (RPMI-8226 leukemia): 13.4 µM
- TGI (RPMI-8226 leukemia): 41.4 µM
- GI50 (SK-MEL-28 melanoma): > 100 µM
- TGI (SK-MEL-28 melanoma): > 100 µM
- GI50 (786-0 renal): 3.62 µM
- TGI (786-0 renal): 11.5 µM
- GI50 (SNB-75 CNS): 2.01 µM
- TGI (SNB-75 CNS): 8.89 µM
- GI50 (SK-MEL-5 melanoma): 39.3 µM
- TGI (SK-MEL-5 melanoma): > 100 µM
- GI50 (OVCAR-3 ovarian): 21.2 µM
- TGI (OVCAR-3 ovarian): > 100 µM
- GI50 (SNB-19 CNS): 4.16 µM
- TGI (SNB-19 CNS): 34.4 µM
- GI50 (RXF 393 renal): 5.21 µM
- TGI (RXF 393 renal): 22.4 µM
- GI50 (HCC-2998 colon): 24.8 µM
- TGI (HCC-2998 colon): > 100 µM
- GI50 (NCI/ADR-RES ovarian): 17.1 µM
- TGI (NCI/ADR-RES ovarian): > 100 µM
- GI50 (MOLT-4 leukemia): 14.9 µM
- TGI (MOLT-4 leukemia): 32.5 µM
- GI50 (SK-OV-3 ovarian): 3.17 µM
- TGI (SK-OV-3 ovarian): 9.92 µM
- GI50 (COLO 205 colon): 3.93 µM
- TGI (COLO 205 colon): > 100 µM
- GI50 (UACC-257 melanoma): 29.4 µM
- TGI (UACC-257 melanoma): > 100 µM
- GI50 (MDA-MB-435): > 100 µM
- TGI (MDA-MB-435): > 100 µM
- GI50 (DU-145 prostate): 15.6 µM
- TGI (DU-145 prostate): > 100 µM
- GI50 (K-562 leukemia): 14.8 µM
- TGI (K-562 leukemia): 39.4 µM
- GI50 (BT-549 breast): 31.7 µM
- TGI (BT-549 breast): 95 µM
- GI50 (SW-620 colon): > 100 µM
- TGI (SW-620 colon): > 100 µM
- GI50 (ACHN renal): 3.88 µM
- TGI (ACHN renal): 27.2 µM
- GI50 (MCF7 breast): 20.4 µM
- TGI (MCF7 breast): > 100 µM
- GI50 (NCI-H460 lung): 4.2 µM
- TGI (NCI-H460 lung): > 100 µM
- GI50 (SF-268 CNS): 15 µM
- TGI (SF-268 CNS): 55 µM
- GI50 (IGROV1 ovarian): 3.66 µM
- TGI (IGROV1 ovarian): 38 µM
- GI50 (HL-60(TB) leukemia): 56.6 µM
- TGI (HL-60(TB) leukemia): > 100 µM
- GI50 (T-47D breast): 8.12 µM
- TGI (T-47D breast): > 100 µM
- GI50 (HCT-116 colon): 3.6 µM
- TGI (HCT-116 colon): 20.9 µM
- GI50 (KM12 colon): 17.4 µM
- TGI (KM12 colon): > 100 µM
- GI50 (U251 CNS): 4.76 µM
- TGI (U251 CNS): 24.9 µM
- GI50 (UO-31 renal): 2.13 µM
- TGI (UO-31 renal): > 100 µM
- GI50 (M14 melanoma): 30 µM
- TGI (M14 melanoma): > 100 µM
- GI50 (HOP-92 NSCLC): 1.25 µM
- TGI (HOP-92 NSCLC): 4.89 µM
- GI50 (NCI-H226 lung): 8.87 µM
- TGI (NCI-H226 lung): > 100 µM
- GI50 (SR leukemia): 7.99 µM
- TGI (SR leukemia): 22.7 µM
- GI50 (CCRF-CEM leukemia): 4.03 µM
- TGI (CCRF-CEM leukemia): 16.9 µM
- GI50 (HOP-62 NSCLC): 2.17 µM
- TGI (HOP-62 NSCLC): 5.66 µM
- GI50 (PC-3 prostate): 7.76 µM
- TGI (PC-3 prostate): > 100 µM
- GI50 (TK-10 renal): 4.63 µM
- TGI (TK-10 renal): 13.8 µM
- GI50 (OVCAR-4 ovarian): 3.39 µM
- TGI (OVCAR-4 ovarian): > 100 µM
- GI50 (OVCAR-5 ovarian): 20.8 µM
- TGI (OVCAR-5 ovarian): > 100 µM
- GI50 (HT29 colon): > 100 µM
- TGI (HT29 colon): > 100 µM
- GI50 (A549 NSCLC): 3.75 µM
- TGI (A549 NSCLC): > 100 µM
- GI50 (SF-539 CNS): 11.9 µM
- TGI (SF-539 CNS): 27.7 µM
- GI50 (LOX IMVI melanoma): 3.9 µM
- TGI (LOX IMVI melanoma): > 100 µM
- GI50 (NCI-H23 lung): 15.7 µM
- TGI (NCI-H23 lung): 62.8 µM
- GI50 (HS 578T breast): 2.68 µM
- TGI (HS 578T breast): 10.4 µM
- GI50 (MALME-3M melanoma): 8.17 µM
- TGI (MALME-3M melanoma): 54.6 µM
- GI50 (MDA-MB-231 breast): 3.99 µM
- TGI (MDA-MB-231 breast): 26.1 µM
- GI50 (SK-MEL-2 melanoma): 14.8 µM
- TGI (SK-MEL-2 melanoma): 35 µM
- GI50 (CAKI-1 renal): 3.65 µM
- TGI (CAKI-1 renal): > 100 µM
- GI50 (SN12C renal): 15.1 µM
- TGI (SN12C renal): > 100 µM
